# Results as given in patent publication US5753483A (priority 1995, dated 1998).
# Key:
# [1] = tested on: UDP-GlcNAc pyrophosphorylase; details: reverse direction, at 1 mM inorganic pyrophosphate
# Procedure: (§1) When measured in the reverse direction, either a direct assay or an indirect assay could be used. […] The incubation mixtures contained the following components in a final volume of 50 μl: 5 mM sodium pyrophosphate, 250 uM UDP-[^3 H]GlcNAc (2.2 Ci/mmol), 100 mM Tris HCl buffer, pH 8.5, 2 mM MgCl2, and various amounts of enzyme at the different stages of purification. […] The suspension was vortexed vigorously for 2 minutes, and was then centrifuged in a microfuge. The supernatant liquid was removed and saved, and the charcoal was washed with 1 ml of water. The supernatant liquid from this wash was combined with the first supernatant liquid, and an aliquot was removed and counted, as a measure of the formation of GlcNAc-1-P.
# (§2) For the indirect assay, a modification of the spectrophotometric method of Munch-Petersen, (1956) Acta Chim. Scand. […] The assay mixtures contained 50 mM Tris-HCl buffer, pH 7.5, 1 mM MgCl2, 0.5 mM ADP, 1 mM glucose, 0.5 mM NADP, 1 mM inorganic pyrophosphate, 2 mM UDP-HexNAc and 2.5 units each of nucleoside diphosphate kinase, hexokinase and glucose-6-P dehydrogenase.
# Pyrophosphorylase = molecular target: T1, Pyrophosphorylase (Sus scrofa, UniProt F1S210); assay: Specificity of pyrophosphorylase (reverse direction); type: biochemical, pig
# T1 construct: 64 and 55 kDa bands; native about 125 kDa
# Procedure: as §1, §2
# The substrate specificity of the purified enzyme was examined in both the forward and the reverse direction.
# [2] = tested on: UDP-GlcNAc pyrophosphorylase; assay: Inhibition of pyrophosphorolysis of UDP-[^3 H]GlcNAc by nucleotides (FIG. 3); type: biochemical, pig; details: increasing concentrations; reverse direction
# Procedure: Activity was measured in the reverse direction (i.e., production of GlcNAc-1-P) as indicated.
# as §1
# [3] = molecular target: T2, UDP-GlcNAc pyrophosphorylase (Sus scrofa, UniProt F1S210); assay: Photoaffinity labeling of purified pyrophosphorylase and its inhibition (FIG. 5); type: binding, pig; details: unlabeled UDP-GalNAc or UDP-glucose
# T2 construct: both 64 and 55 kDa bands photolabelled
# Procedure: Enzyme was incubated with radioactive probe in the presence or absence of various inhibitors, and some of the incubations were exposed to UV light to activate the probe. Each incubation was treated with trichloroacetic acid to precipitate the protein, and the pellet was resuspended in SDS and subjected to SDS-PAGE. Radioactive proteins were detected by exposure to film. […]
# [4] = tested on: UDP-GlcNAc pyrophosphorylase; details: from 10 μmol GalNAc-1-P or glucose-1-P, and UTP
# Procedure: The reaction products, formed in either the forward direction (i.e., uridine diphosphate sugars), or in the reverse direction (i.e., UTP and sugar-i-P's), were isolated by chromatography on a 1×20
# column of DEAE-cellulose (HCO3 -), equilibrated in 10 mM NH4 HCO3. After application of the sample, the column was washed with the same solution and the retained products were eluted with 200 ml of a linear 10 to 300 mM gradient of NH4 HCO3. Fractions were analyzed for nucleotides by measuring the absorption at 260 nm, for radioactivity by scintillation counting, and for hexosamine by the Reissig test (J. Biol. Chem., 217, 959-966, 1955) or the or the Elson Morgan assay (Wheat, R. W. (1966) Meth. Enzymol. 8, 60-78). Peak fractions were pooled and concentrated on a rotary evaporator and NH4 H CO3 was removed by evaporation in the presence of triethylamine. The triethylamine was in turn removed by evaporation in the presence of methanol.
# The reaction products were identified by chromatography, either directly, or following various treatments such as digestion with phosphodiesterase or alkaline phosphatase, or acid hydrolysis. Nucleotides were identified by TLC in the following systems: PEI plates developed in 0.2M and 0.4M solutions of LiCl; cellulose plates in ethanol: 1M ammonium acetate, pH 7.3 (7:3), or silica gel plates in ethanol: 1M ammonium acetate, pH 5.0 (7:3). N-acetyl-hexosamines were released from nucleotides by mild acid hydrolysis (0.01 N HCl, 100° C., 15 minutes) and identified by chromatography on borate-treated paper in n-butanol:pyridine:water (6:4:3) as described earlier by Cardini and Leloir, (1953) Arch. Biochem. Biophys., 45, 317-324.
# After deproteinization, the aqueous phase was applied to a column of DE-52 and sugar phosphates and nucleoside diphosphate sugars were separated with a gradient of NH4 HCO3, as shown in FIG. 4. […] The peak was pooled and subjected to TLC in 3 different solvent systems as described above.
# The characterization of these products was also based on the products produced by phosphosdiesterase, mild acid hydrolysis and other treatments.
# sheep brain enzyme = details: cited from earlier work
# enzyme from bacteria = details: cited from earlier work
# [5] = tested on: UDP-GlcNAc pyrophosphorylase; details: calf liver and Staphylococcus aureus preparations; cited from earlier work
# T1 sequence (F1S210 1-505): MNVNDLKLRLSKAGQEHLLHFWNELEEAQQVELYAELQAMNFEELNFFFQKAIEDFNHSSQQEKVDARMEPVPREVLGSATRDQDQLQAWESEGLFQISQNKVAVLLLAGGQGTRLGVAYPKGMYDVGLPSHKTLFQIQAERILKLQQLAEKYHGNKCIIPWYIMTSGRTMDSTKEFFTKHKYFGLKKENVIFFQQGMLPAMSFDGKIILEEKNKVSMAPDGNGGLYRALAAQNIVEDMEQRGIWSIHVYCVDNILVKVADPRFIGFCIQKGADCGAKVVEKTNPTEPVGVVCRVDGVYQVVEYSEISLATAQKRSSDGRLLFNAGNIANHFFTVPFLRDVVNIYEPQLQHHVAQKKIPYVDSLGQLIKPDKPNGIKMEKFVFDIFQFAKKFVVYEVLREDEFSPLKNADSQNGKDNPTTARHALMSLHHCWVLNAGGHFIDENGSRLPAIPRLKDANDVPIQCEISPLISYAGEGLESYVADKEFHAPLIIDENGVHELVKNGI
# T2 sequence (F1S210 1-505): as above
compound,measurement,setting,value
"CC(=O)N[C@H]1[C@@H](OP(=O)(O)OP(=O)(O)OC[C@H]2O[C@@H](n3ccc(=O)[nH]c3=O)[C@H](O)[C@@H]2O)O[C@H](CO)[C@H](O)[C@@H]1O [UDP-GalNAc, UDP-N-acetylgalactosamine]",Km,[1],200 µM
same,Vmax,[1],31.3 nmol/min
same,"substrate preference, reverse direction",Pyrophosphorylase,preferred UDP-GalNAc over UDP-GlcNAc
same,Activity,"Pyrophosphorylase; 5 mM, PP = 1 mM",19.7 nmol/min
same,Relative Activity,"Pyrophosphorylase; 5 mM, PP = 1 mM, UDP-GalNAc = 100",100%
same,inhibition of reaction with UDP-[^3 H]GlcNAc,[2],inhibited by increasing concentrations
same,inhibition of labeling,[3],"also blocked, although not nearly as effectively"
same,amount formed,[4],8.2 µmol
same,"amount formed, percent",[4],82%
same,activity as substrate (in words),sheep brain enzyme,not with UDP-GalNAc
same,activity relative to UDP-GlcNAc,enzyme from bacteria,2.6%
same,rate of phosphorolysis relative to UDP-GlcNAc,[5],about 2.8%
